Data: ChEMBL document CHEMBL4024781, “Comprehensive Synthesis of Amino Acid-Derived Thiazole Peptidomimetic Analogues to Understand the Enigmatic Drug/Substrate-Binding Site of P-Glycoprotein” (J Med Chem, 2018)

Experiments:
Settings in all cases: read-out: Activity
P-gp (ABCB1) [1] = biological target: T1, P-gp (ABCB1) (Homo sapiens, UniProt P08183); assay: Activation of human P-gp expressed in high five insect cell membrane vesicles by measuring the vanadate-sensitive ATPase activity of P-gp at 2.5 uM preincubated for 5 mins in the presence of sodium orthovanadate measured after 20 mins by colorimetric method
T1 sequence (P08183 whole entry): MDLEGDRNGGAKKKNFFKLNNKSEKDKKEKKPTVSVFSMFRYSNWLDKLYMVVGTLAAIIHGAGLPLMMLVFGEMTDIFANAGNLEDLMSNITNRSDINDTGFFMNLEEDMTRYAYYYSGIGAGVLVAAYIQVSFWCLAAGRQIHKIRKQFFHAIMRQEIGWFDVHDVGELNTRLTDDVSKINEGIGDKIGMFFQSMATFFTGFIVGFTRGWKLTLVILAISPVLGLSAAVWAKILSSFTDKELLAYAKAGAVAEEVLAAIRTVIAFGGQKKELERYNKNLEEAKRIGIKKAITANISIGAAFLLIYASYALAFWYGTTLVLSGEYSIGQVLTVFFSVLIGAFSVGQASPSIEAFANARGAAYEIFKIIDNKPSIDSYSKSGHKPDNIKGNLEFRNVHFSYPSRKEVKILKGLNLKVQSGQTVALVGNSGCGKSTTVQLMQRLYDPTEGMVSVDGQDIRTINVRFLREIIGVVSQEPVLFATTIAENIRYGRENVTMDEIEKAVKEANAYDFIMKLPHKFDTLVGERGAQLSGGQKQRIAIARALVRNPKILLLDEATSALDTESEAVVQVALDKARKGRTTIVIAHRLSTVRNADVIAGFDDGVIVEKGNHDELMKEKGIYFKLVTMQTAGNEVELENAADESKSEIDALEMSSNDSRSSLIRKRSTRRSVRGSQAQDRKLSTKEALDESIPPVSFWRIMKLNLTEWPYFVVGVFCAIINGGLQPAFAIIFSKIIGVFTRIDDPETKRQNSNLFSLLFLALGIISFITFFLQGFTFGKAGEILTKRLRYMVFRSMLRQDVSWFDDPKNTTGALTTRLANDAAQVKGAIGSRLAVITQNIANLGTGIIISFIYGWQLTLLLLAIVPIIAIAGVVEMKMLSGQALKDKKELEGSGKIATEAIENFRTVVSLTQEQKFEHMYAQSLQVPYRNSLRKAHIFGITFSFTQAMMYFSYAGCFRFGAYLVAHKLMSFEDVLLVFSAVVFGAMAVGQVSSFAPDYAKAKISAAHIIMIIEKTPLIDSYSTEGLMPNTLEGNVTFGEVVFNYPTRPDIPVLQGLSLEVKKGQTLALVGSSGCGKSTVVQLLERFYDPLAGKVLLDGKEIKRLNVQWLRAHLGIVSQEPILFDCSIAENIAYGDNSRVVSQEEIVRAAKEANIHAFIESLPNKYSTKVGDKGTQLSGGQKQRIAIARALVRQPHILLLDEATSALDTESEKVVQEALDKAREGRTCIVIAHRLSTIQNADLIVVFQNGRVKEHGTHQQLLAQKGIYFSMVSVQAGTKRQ

P-gp (ABCB1) [2] = biological target: T1, P-gp (ABCB1); assay: Activation of human P-gp expressed in high five insect cell membrane vesicles by measuring the vanadate-sensitive ATPase activity of P-gp at 0.5 uM preincubated for 5 mins in the presence of sodium orthovanadate measured after 20 mins by colorimetric method
P-gp (ABCB1) [3] = biological target: T1, P-gp (ABCB1); assay: Activation of human P-gp expressed in high five insect cell membrane vesicles by measuring the vanadate-sensitive ATPase activity of P-gp at 0.05 uM preincubated for 5 mins in the presence of sodium orthovanadate measured after 20 mins by colorimetric method

Row | Compound | activity at 20 min, 2.5 µM (P-gp (ABCB1) [1]) [%] | activity at 20 min, 0.5 µM (P-gp (ABCB1) [2]) [%] | activity at 20 min, 0.05 µM (P-gp (ABCB1) [3]) [%]
1 | COc1cc(CC(=O)N[C@H](c2nc(C(=O)NC3CCC(F)(F)CC3)cs2)C(C)C)cc(OC)c1OC | 70.2 |  | 
2 | COc1cc(C(=O)N[C@H](c2nc(C(=S)NC3CCCCC3)cs2)C(C)C)cc(OC)c1OC | 27 | ≤ 10 | 
3 | COc1cc(C(=O)N[C@H](c2nc(C(=O)Nc3ccccc3C(=O)c3ccc(N=[N+]=[N-])cc3)cs2)C(C)C)cc(OC)c1OC | 169 | 148 | 
4 | COc1cc(C(=O)N[C@H](c2nc(C(=O)Nc3ccc(F)cc3)cs2)C(C)C)cc(OC)c1OC | 244 | 59.5 | 
5 | COc1cc(C(=O)N[C@H](c2nc(C(=O)NC3CCN(c4ncccn4)CC3)cs2)C(C)C)cc(OC)c1OC | 83 | 17.1 | 
6 | CC(C)[C@H](NC(=O)c1ccccc1N=[N+]=[N-])c1nc(C(=O)Nc2ccccc2C(=O)c2ccccc2)cs1 | 182 | 142 | 
7 | CC(C)[C@H](NC(=O)c1cnc2ccccc2c1)c1nc(C(=O)NC2CCC(F)(F)CC2)cs1 | 83.9 |  | 
8 | COc1cc(C(=O)N[C@H](c2nc(C(=O)N[C@H]3CCCc4ccccc43)cs2)C(C)C)cc(OC)c1OC | 123 | 108 | 
9 | CC(C)[C@H](NC(=O)c1ccc(N=[N+]=[N-])cc1)c1nc(C(=O)Nc2ccccc2C(=O)c2ccccc2)cs1 | 164 | 135 | 
10 | COc1cc(C(=O)N[C@H](c2nc(C(=O)N3CCC(=O)CC3)cs2)C(C)C)cc(OC)c1OC | ≤ 10 | ≤ 10 | 
11 | COc1cc(C(=O)NC(c2nc(C(=O)NCC3CCC(N)CC3)cs2)C(C)C)cc(OC)c1OC (stereo not given) | ≤ 10 | ≤ 10 | 
12 | COc1cc(C(=O)N[C@H](c2nc(C(=O)N3CCC(N4CCCCC4)CC3)cs2)C(C)C)cc(OC)c1OC | 47.2 | 37.2 | 
13 | COc1cc(C(=O)N[C@H](c2nc(C(=O)N3CCC(F)(F)CC3)cs2)C(C)C)cc(OC)c1OC | 55.9 | 40.9 | 
14 | COc1cc(C(=O)N[C@H](c2nc(C(=O)NCCCC(F)(F)F)cs2)C(C)C)cc(OC)c1OC | 77.3 | 17.1 | 
15 | COc1cc(C(=O)N[C@H](c2nc(C(=O)NC3CCOCC3)cs2)C(C)C)cc(OC)c1OC | ≤ 10 | 26.9 | 
16 | COc1ccc(C(=O)N[C@H](c2nc(C(=O)NC3CCC(F)(F)CC3)cs2)C(C)C)cc1 | 35.8 |  | 
17 | COc1cc(C(=O)N[C@H](c2nc(C(=O)NCC3CCNCC3)cs2)C(C)C)cc(OC)c1OC | ≤ 10 | 23 | 
18 | COc1cc(C(=O)N[C@H](c2nc(C(=O)N3CCC(C(F)(F)F)CC3)cs2)C(C)C)cc(OC)c1OC | 75.6 | 13.3 | 
19 | COc1cc(NC(=O)c2csc([C@@H](NC(=O)c3ccccc3C(=O)c3ccccc3)C(C)C)n2)cc(OC)c1OC |  | 46 | ≤ 10
20 | CC(C)[C@H](NC(=O)c1ccccc1)c1nc(C(=O)NC2CCC(F)(F)CC2)cs1 | 10.5 |  | 
21 | COc1cc(C(=O)NCc2nc(C(=O)NC3CCC(F)(F)CC3)cs2)cc(OC)c1OC | 13 | ≤ 10 | 
22 | COc1cc(C(=O)C(=O)N[C@H](c2nc(C(=O)NC3CCC(F)(F)CC3)cs2)C(C)C)cc(OC)c1OC | 178 |  | 
23 | COc1cc(C(=O)N[C@H](c2nc(C(=O)NC3CCC3)cs2)C(C)C)cc(OC)c1OC | ≤ 10 | 25.3 | 
24 | COc1cc(C(=O)N[C@H](c2nc(C(=O)NC3CCS(=O)(=O)CC3)cs2)C(C)C)cc(OC)c1OC | ≤ 10 | ≤ 10 | 

Row | Compound | activity at 20 min, 2.5 µM (P-gp (ABCB1) [1]) [%] | activity at 20 min, 0.5 µM (P-gp (ABCB1) [2]) [%] | activity at 20 min, 0.05 µM (P-gp (ABCB1) [3]) [%]
25 | COc1cc(C(=O)N[C@H](c2nc(C(=O)Nc3ccccc3C(=O)Nc3ccccc3)cs2)C(C)C)cc(OC)c1OC |  | 142 | 21
26 | CC(C)[C@H](NC(=O)C1CCOCC1)c1nc(C(=O)NC2CCC(F)(F)CC2)cs1 | ≤ 10 |  | 
27 | COc1cc(C(=S)N[C@H](c2nc(C(=S)NC3CCC(F)(F)CC3)cs2)C(C)C)cc(OC)c1OC | 64 | 25 | 
28 | CC(C)[C@H](NC(=O)c1cncnc1)c1nc(C(=O)NC2CCC(F)(F)CC2)cs1 | ≤ 10 |  | 
29 | COc1ccc(C(=O)N[C@H](c2nc(C(=O)NC3CCC(F)(F)CC3)cs2)C(C)C)cc1OC | 11.9 |  | 
30 | COc1cc(C(=O)N[C@H](c2nc(C(=O)NC3CCNCC3)cs2)C(C)C)cc(OC)c1OC | 14.5 | 46.3 | 
31 | CC(C)[C@H](NC(=O)c1cscn1)c1nc(C(=O)NC2CCC(F)(F)CC2)cs1 | 49.7 |  | 
32 | COc1cc(C(=O)N[C@H](c2nc(C(=O)NC3CCN(Cc4ccccc4)CC3)cs2)C(C)C)cc(OC)c1OC | 154 | 169 | 
33 | CC(C)[C@H](NC(=O)c1cccc(N=[N+]=[N-])c1)c1nc(C(=O)Nc2ccccc2C(=O)c2ccccc2)cs1 | 194 | 122 | 
34 | COc1cc(C(=O)N[C@H](c2nc(C(=O)N3CCC(N)CC3)cs2)C(C)C)cc(OC)c1OC | ≤ 10 | 45.4 | 
35 | COc1cc(C(=O)N[C@H](c2nc(C(=O)NC3CCN(C(=O)OC(C)(C)C)CC3)cs2)C(C)C)cc(OC)c1OC | 48 | 52.7 | 
36 | COc1cc(C(=O)N[C@H](c2nc(C(=O)NC3CCC(C)(C)CC3)cs2)C(C)C)cc(OC)c1OC | 34.3 | ≤ 10 | 
37 | COc1cc(C(=O)N2CCCC2c2nc(C(=O)NC3CCC(F)(F)CC3)cs2)cc(OC)c1OC (stereo not given) | 21 | ≤ 10 | 
38 | COc1cc(C(=O)Nc2nc(C(=O)NC3CCC(F)(F)CC3)cs2)cc(OC)c1OC | 60.2 | 53.9 | 
39 | CC(C)[C@H](NC(=O)c1ccc(N=[N+]=[N-])cc1)c1nc(C(=O)Nc2ccccc2C(=O)c2ccc(Br)cc2)cs1 | 84.7 | 99.4 | 
40 | CC(C)[C@H](N)c1nc(C(=O)NC2CCC(F)(F)CC2)cs1 | ≤ 10 | ≤ 10 | 
41 | COc1cc(C(=O)N[C@H](c2nc(C(=O)Nc3cccc(C(=O)c4ccccc4)c3)cs2)C(C)C)cc(OC)c1OC |  | 143 | 13
42 | COc1cc(C(=O)N[C@H](c2nc(C(=O)N(C3CCCCC3)C3CCCCC3)cs2)C(C)C)cc(OC)c1OC | 134 | 109 | 
43 | COc1cc(C(=O)N[C@H](c2nc(C(=O)Nc3cc(F)c(F)c(F)c3)cs2)C(C)C)cc(OC)c1OC | 176 | 57 | 
44 | COc1cc(C(=S)N[C@H](c2nc(C(=S)NC3CCCCC3)cs2)C(C)C)cc(OC)c1OC | 92 | 65 | 
45 | COc1cc(C(=O)N[C@H](c2nc(C(=O)NC3CCC(=O)CC3)cs2)C(C)C)cc(OC)c1OC | ≤ 10 | 13.1 | 
46 | COc1cc(C(=O)NC(CC(C)C)c2nc(C(=O)NC3CCC(F)(F)CC3)cs2)cc(OC)c1OC (stereo not given) | 68 | 16 | 
47 | COc1cc(C(=O)N[C@H](c2nc(C(=O)NC3CCCC3)cs2)C(C)C)cc(OC)c1OC | ≤ 10 | ≤ 10 | 
